Laboratory results as given in patent US20150236379A1, “ADDITIVES FOR GALVANIC CELLS” (ROCKWOOD LITHIUM GMBH, priority 2012, published 2015).
Read-outs that look alike come from different tables or passages of the source.

Legend:
[1] = Solubility in conventional battery solvents; format: physicochemical
Description: This was not to be expected, since it is known that many Cs salts having large, weakly coordinating anions are relatively poorly soluble in water (A. Nadjafi, Microchim. Acta 1973, 689-696).
The abbreviation BOB stands for bis-(oxalato)borate (C4O8B)^−, BMB for bis-(malonato)borate (C6H4O8B)^−, NMP for N-methylpyrrolidone, EC for ethylene carbonate, DMC for dimethyl carbonate, EMC for ethyl methyl carbonate and PC for propylene carbonate.

[2] = Cs content (FES) in filtered electrolyte solution after stirring with excess additive; format: physicochemical; conditions: stirred 24 h, membrane filtered
Protocol: (§1) In an Ar-filled glove box, 10 g of an 11 wt.-% LiBOB solution in ethylene carbonate/ethylmethyl carbonate (1:1, wt./wt.) was mixed with 0.32 g CsBOB and magnetically stirred for 24 h. The suspension was then filter-clarified by membrane filtration ([…] PTFE). • Cs content (FES) in the electrolyte solution: 0.05 wt.-%
as §1, with “a 10 wt-% […]” for “an 11 wt.-% LiBOB”, “0.47” for “0.32”, “CsClO4” for “CsBOB”, “0.07” for “0.05”

[3] = Thermal stability, thermogravimetric experiment under argon flow; format: physicochemical
Protocol: In a 1-L round-bottom glass flask, 38.67 g boric acid and […] oxalic acid dihydrate were suspended in 121 g water. 102.9 g cesium carbonate was added in portions, with magnetic stirring (vigorous foaming due to CO2 generation). After the addition was complete, the white suspension was evaporated on a rotary evaporator, initially at 100° C. and 400 mbar. The colorless solid residue was then ground and subjected to final drying at 180° C. and 20 mbar for 3 h. • Yield: 197.3 g of colorless powder (97% of theoretical) • Cs content: 41.0% • […] ^11B=7.4 ppm (solution in DMSO-d6) • Thermal stability: 290° C. (onset of thermal decomposition in the thermogravimetric experiment under argon flow)

[4] = Additive salt solubility in lithium conducting salt electrolyte solutions
[5] = cited from earlier work
[6] = supporting electrolyte LiBOB, 10% EC/EMC
[7] = supporting electrolyte LiPF6, 10% EC/EMC

Row | Compound | Solubility [1] [mM] | Solubility (Wt. %) [1] [Wt. %] | Cs content (FES) in the electrolyte solution ([2]; 11 wt.-% LiBOB in EC/EMC (1:1, wt./wt.)) [wt.-%] | Thermal stability (onset of thermal decomposition) [3] [°C] | Additive Salt Solubility [4, 6] [mM] | Additive Salt Solubility (wt.-%) [4, 6] [wt.-%] | Additive Salt Solubility [4, 7] [mM] | Additive Salt Solubility (wt.-%) [4, 7] [wt.-%] | Solubility ([1]; solvent EC/DMC (1:1)) [mM] | Solubility (Wt. %) ([1]; solvent EC/DMC (1:1)) | Solubility ([1]; solvent NMP) [mM] | Solubility (Wt. %) ([1]; solvent NMP) | Solubility ([1]; solvent PC) [mM] | Solubility (Wt. %) ([1]; solvent PC) | Cs content (FES) in the electrolyte solution ([2]; 10 wt-% LiPF5 in EC/EMC (1:1, wt./wt.)) [wt.-%] | solubility in water ([5]; 0° C.) [g/100 mL] | solubility in water ([5]; 25° C.) [g/100 mL]
1 | O=C1CC(=O)O[B-]2(O1)OC(=O)CC(=O)O2.[Cs+] [CsBMB] | 50 | 1.8 |  |  |  |  |  |  |  |  |  |  |  |  |  |  | 
2 | O=C1O[B-]2(OC1=O)OC(=O)C(=O)O2.[Cs+] [CsBOB, Cesium bis(oxalato)borate] |  |  | 0.05 | 290 | 4 | 0.12 | 40 | 1.2 | 70 | 1.8 | 270 | 7.9 | 60 | 1.5 |  |  | 
3 | [Cs+].[O-][Cl+3]([O-])([O-])[O-] [CsClO4, cesium perchlorate] |  |  |  |  | 5 | 0.12 | 40 | 0.9 |  |  |  |  | 70 | 1.3 | 0.07 | 0.8 | 1.97
4 | O=C1O[B-]2(OC1=O)OC(=O)C(=O)O2.[Rb+] [RbBOB] | 30 | 0.64 |  |  | 1 | 0.03 | 40 | 1.2 |  |  |  |  |  |  |  |  | 
